Data taken from PMC4684082 (Journal of the American Chemical Society, 2015).
Positions count from the first letter of the chain named.

Assays:
[1] = target: T1, wt hhIYD (iodotyrosine deiodinase from Haliscomenobacter hydrossis) (Haliscomenobacter hydrossis, UniProt F4KU78); test: quenching of active-site FMNox fluorescence; type: binding
T1 sequence (F4KU78 1-222): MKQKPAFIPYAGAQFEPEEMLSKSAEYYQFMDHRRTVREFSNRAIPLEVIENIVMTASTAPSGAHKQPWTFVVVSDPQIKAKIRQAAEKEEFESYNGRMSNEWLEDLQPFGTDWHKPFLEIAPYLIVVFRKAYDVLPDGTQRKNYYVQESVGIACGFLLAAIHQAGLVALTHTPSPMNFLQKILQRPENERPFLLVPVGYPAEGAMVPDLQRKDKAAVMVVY

[2] = target: T2, wt hhIYD (iodotyrosine deiodinase from Haliscomenobacter hydrossis) (Haliscomenobacter hydrossis, UniProt F4KU78, T173A); test: quenching of active-site FMNox fluorescence; type: binding
T2 sequence (F4KU78 1-222 T173A): T1 sequence (F4KU78 1-222) with T173A

[3] = target: T2, wt hhIYD (iodotyrosine deiodinase from Haliscomenobacter hydrossis); test: steady-state reductive deiodination; type: biochemical; settings: read-out: I2-Tyr / KM; dithionite as reductant
[4] = target: T1, wt hhIYD (iodotyrosine deiodinase from Haliscomenobacter hydrossis); test: UV-vis spectrum of enzyme-bound FMN, dithionite reduction; type: binding; settings: pH 6 MES, 500 mM NaCl, 10% glycerol; anaerobic

| SMILES | Kd [1] | Kd [2] | Km [3] | UV-vis spectrum of enzyme-bound FMN, dithionite reduction [4] |
| --- | --- | --- | --- | --- |
| N[C@@H](Cc1cc(I)c(O)c(I)c1)C(=O)O [I2-Tyr] | 2.9 ± 0.1 µM | 2.6 ± 0.2 µM | 35 ± 8 µM | – |
| Cc1cc2nc3c(=O)[nH]c(=O)nc-3n(C[C@H](O)[C@H](O)[C@H](O)COP(=O)(O)O)c2cc1C [FMN] | – | – | – | Stoichiometric addition of dithionite to wt hhIYD under anaerobic conditions reduced its FMNox to FMNhq |
